Results as given in publication PMC11966747, “Next Generation Risk Assessment of Acute Neurotoxicity from Organophosphate Exposures Using the In Vitro–In Silico Derived Dietary Comparator Ratio” (Environmental Science & Technology, 2025).
Where two headings read alike, the source gives them in different places.

Assays:
erythrocyte AChE [1] = target: T1, erythrocyte AChE (Homo sapiens, UniProt P22303); conditions: cited from earlier work; for reported or expected adverse health outcome: human, ref Table S2
[2] = QSAR-based prediction; ref Punt et al. 2022; Moerenhout et al. 2024; cited from earlier work
erythrocyte AChE [3] = target: T1, erythrocyte AChE; test: Exposure Activity Ratio (EAR) and Dietary Comparator Ratio (DCR) calculation; parameters: from tissue; host or cells: human whole peripheral blood (erythrocytes), K2EDTA anticoagulant; conditions: human
Protocol: The DCR value for an exposure scenario was calculated as the ratio of EARtest and EARcomparator (eq 1). The EARtest is scenario-specific and was defined with the IC50 of the tested organophosphate oxon for in vitro erythrocyte AChE inhibition and the PBK model-simulated CBmaxoxon at the defined exposure level (eq 2).
The DCR-based predictions were evaluated by comparing the obtained DCR results with actual knowledge of the adverse health effects reported for the respective exposure scenarios. Adverse effects cannot be ruled out for human exposure scenarios with a DCR result greater than 1, while exposure scenarios with a DCR result less than or equal to 1 are considered to raise no safety concern.[18]−[20] Once validated as an adequate predicting tool, the DCR approach was applied for evaluating the safety of exposure scenarios, for which no information on the resulting toxic outcomes was reported at the defined dose levels for humans.

[4] = 214 mg/kg BW (15 g) acute oral, person, ref Klemmer et al. 1978
[5] = 357 mg/kg BW (25 g) acute oral, person seven, ref Klemmer et al. 1978
[6] = 357 mg/kg BW (25 g) acute oral, person six, ref Klemmer et al. 1978
[7] = 643 mg/kg BW (45 g) acute oral, person, ref Klemmer et al. 1978

T1 sequence (P22303 32-617 isoform P22303-2 limits assumed): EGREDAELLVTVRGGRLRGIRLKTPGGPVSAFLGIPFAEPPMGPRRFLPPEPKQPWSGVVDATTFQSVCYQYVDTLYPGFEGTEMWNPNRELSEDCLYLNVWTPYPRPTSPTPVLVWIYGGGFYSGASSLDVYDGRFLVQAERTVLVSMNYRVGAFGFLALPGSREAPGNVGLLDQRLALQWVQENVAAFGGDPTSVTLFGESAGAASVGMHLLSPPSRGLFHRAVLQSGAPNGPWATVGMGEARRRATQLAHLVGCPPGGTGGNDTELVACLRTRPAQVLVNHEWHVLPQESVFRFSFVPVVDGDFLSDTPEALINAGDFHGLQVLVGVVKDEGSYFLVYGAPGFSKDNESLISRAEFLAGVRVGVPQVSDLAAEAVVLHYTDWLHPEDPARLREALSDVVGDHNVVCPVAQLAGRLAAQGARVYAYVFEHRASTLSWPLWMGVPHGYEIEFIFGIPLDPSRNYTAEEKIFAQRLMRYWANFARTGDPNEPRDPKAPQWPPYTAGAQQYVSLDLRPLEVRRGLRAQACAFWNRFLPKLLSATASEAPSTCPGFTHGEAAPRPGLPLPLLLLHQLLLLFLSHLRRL

Compound: CCOP(=S)(OCC)Oc1cc(C)nc(C(C)C)n1 [diazinon]
- Reported erythrocyte AChE activity/inhibition (erythrocyte AChE [1]; 0.011 mg/kg BW single oral, 4 male and 1 female volunteers, ref Garfitt et al. 2002): No erythrocyte AChE inhibition
- Reported erythrocyte AChE activity/inhibition (erythrocyte AChE [1]; 0.03 mg/kg BW single oral, 7 male volunteers, ref APVMA. 2011, US EPA. 2001 (original data of Boyeson. 2000)): No erythrocyte AChE inhibition
- Reported erythrocyte AChE activity/inhibition (erythrocyte AChE [1]; 0.12 mg/kg BW single oral, 7 male volunteers, ref APVMA. 2011, US EPA. 2001 (original data of Boyeson. 2000)): No erythrocyte AChE inhibition
- Reported erythrocyte AChE activity/inhibition (erythrocyte AChE [1]; 0.20 mg/kg BW single oral, 7 male volunteers, ref APVMA. 2011, US EPA. 2001 (original data of Boyeson. 2000)): No erythrocyte AChE inhibition
- Reported erythrocyte AChE activity/inhibition (erythrocyte AChE [1]; 0.21 mg/kg BW single oral, 7 male volunteers, APVMA: significant inhibition, US EPA: limited, ref APVMA. 2011, US EPA. 2001 (original data of Boyeson. 2000)): Conflicting opinions
- Reported concomitant effects (signs and symptoms) (erythrocyte AChE [1]; 0.21 mg/kg BW single oral, 7 male volunteers, might occur, ref APVMA. 2011, US EPA. 2001 (original data of Boyeson. 2000)): Mild clinical signs or symptoms
- Reported erythrocyte AChE activity/inhibition (erythrocyte AChE [1]; 0.30 mg/kg BW single oral, 1 volunteer, APVMA: inhibition greater than at 0.20 mg/kg BW, US EPA: no inhibition, ref APVMA. 2011, US EPA. 2001 (original data of Boyeson. 2000)): Conflicting opinions
- Reported concomitant effects (signs and symptoms) (erythrocyte AChE [1]; 0.30 mg/kg BW single oral, 1 volunteer, might occur, ref APVMA. 2011, US EPA. 2001 (original data of Boyeson. 2000)): Mild clinical signs or symptoms
- Reported concomitant effects (signs and symptoms) (erythrocyte AChE [1]; 200 mg/kg BW (14 - 57 g) acute oral, 14 males and 11 females, ref APVMA. 2011 (original data of Mutalik et al. 1962)): Toxic symptoms occurred
- Reported concomitant effects (signs and symptoms) (erythrocyte AChE [1]; [4]): toxic symptoms occurred
- Reported erythrocyte AChE activity/inhibition (erythrocyte AChE [1]; [4]): Significantly decreased
- Reported concomitant effects (signs and symptoms) (erythrocyte AChE [1]; 293 mg/kg BW (22 g) acute oral, person, ref Poklis et al. 1980): Died
- Reported concomitant effects (signs and symptoms) (erythrocyte AChE [1]; 323 mg/kg BW (22.6 g) acute oral, person, ref APVMA. 2011 (original data of Banerjee. 1967)): Toxic symptoms occurred
- Reported concomitant effects (signs and symptoms) (erythrocyte AChE [1]; [5]): toxic symptoms occurred
- Reported erythrocyte AChE activity/inhibition (erythrocyte AChE [1]; [5]): Significantly decreased
- Reported concomitant effects (signs and symptoms) (erythrocyte AChE [1]; [6]): toxic symptoms occurred
- Reported erythrocyte AChE activity/inhibition (erythrocyte AChE [1]; [6]): Significantly decreased
- Reported concomitant effects (signs and symptoms) (erythrocyte AChE [1]; 429 mg/kg BW (30 g) acute oral, person, ref Martinez-Chuecos et al. 1992): Toxic symptoms occurred
- Reported concomitant effects (signs and symptoms) (erythrocyte AChE [1]; [7]): toxic symptoms occurred
- Reported erythrocyte AChE activity/inhibition (erythrocyte AChE [1]; [7]): Significantly decreased
- reported or expected adverse health outcome (erythrocyte AChE [1]; single oral 0.011 mg/kg BW, 0.011 mg/kg): negative
- reported or expected adverse health outcome (erythrocyte AChE [1]; single oral 0.011 mg/kg BW, listed as Diazinon, 0.011 mg/kg): No
- reported or expected adverse health outcome (erythrocyte AChE [1]; single oral 0.03 mg/kg BW, 0.03 mg/kg): negative
- reported or expected adverse health outcome (erythrocyte AChE [1]; single oral 0.03 mg/kg BW, listed as Diazinon, 0.03 mg/kg): No
- reported or expected adverse health outcome (erythrocyte AChE [1]; single oral 0.12 mg/kg BW, 0.12 mg/kg): negative
- reported or expected adverse health outcome (erythrocyte AChE [1]; single oral 0.12 mg/kg BW, listed as Diazinon, 0.12 mg/kg): No
- reported or expected adverse health outcome (erythrocyte AChE [1]; single oral 0.20 mg/kg BW, 0.2 mg/kg): negative
- reported or expected adverse health outcome (erythrocyte AChE [1]; single oral 0.20 mg/kg BW, listed as Diazinon, 0.2 mg/kg): No
- reported or expected adverse health outcome (erythrocyte AChE [1]; single oral 200 mg/kg BW, 200 mg/kg): positive
- reported or expected adverse health outcome (erythrocyte AChE [1]; single oral 200 mg/kg BW, listed as Diazinon, 200 mg/kg): Yes
- reported or expected adverse health outcome (erythrocyte AChE [1]; single oral 214 mg/kg BW, 214 mg/kg): positive
- reported or expected adverse health outcome (erythrocyte AChE [1]; single oral 214 mg/kg BW, listed as Diazinon, 214 mg/kg): Yes
- reported or expected adverse health outcome (erythrocyte AChE [1]; single oral 293 mg/kg BW, 293 mg/kg): positive
- reported or expected adverse health outcome (erythrocyte AChE [1]; single oral 293 mg/kg BW, listed as Diazinon, 293 mg/kg): Yes
- reported or expected adverse health outcome (erythrocyte AChE [1]; single oral 323 mg/kg BW, 323 mg/kg): positive
- reported or expected adverse health outcome (erythrocyte AChE [1]; single oral 323 mg/kg BW, listed as Diazinon, 323 mg/kg): Yes
- reported or expected adverse health outcome (erythrocyte AChE [1]; single oral 357 mg/kg BW, 357 mg/kg): positive
- reported or expected adverse health outcome (erythrocyte AChE [1]; single oral 357 mg/kg BW, listed as Diazinon, 357 mg/kg): Yes
- reported or expected adverse health outcome (erythrocyte AChE [1]; single oral 429 mg/kg BW, 429 mg/kg): positive
- reported or expected adverse health outcome (erythrocyte AChE [1]; single oral 429 mg/kg BW, listed as Diazinon, 429 mg/kg): Yes
- reported or expected adverse health outcome (erythrocyte AChE [1]; single oral 643 mg/kg BW, 643 mg/kg): positive
- reported or expected adverse health outcome (erythrocyte AChE [1]; single oral 643 mg/kg BW, listed as Diazinon, 643 mg/kg): Yes
- Oral absorption rate constant [2]: 0.73 h⁻¹
- calculated DCR value (erythrocyte AChE [3]; single oral 0.011 mg/kg BW): 2.1 × 10^–4
- calculated EARtest value (erythrocyte AChE [3]; single oral 0.011 mg/kg BW): 8.3 × 10^–6
- calculated DCR value (erythrocyte AChE [3]; single oral 0.03 mg/kg BW): 5.7 × 10^–4
- calculated EARtest value (erythrocyte AChE [3]; single oral 0.03 mg/kg BW): 2.3 × 10^–5
- calculated DCR value (erythrocyte AChE [3]; single oral 0.12 mg/kg BW): 2.3 × 10^–3
- calculated EARtest value (erythrocyte AChE [3]; single oral 0.12 mg/kg BW): 9.1 × 10^–5
- calculated DCR value (erythrocyte AChE [3]; single oral 0.20 mg/kg BW): 3.8 × 10^–3
- calculated EARtest value (erythrocyte AChE [3]; single oral 0.20 mg/kg BW): 1.5 × 10^–4
- calculated EARtest value (erythrocyte AChE [3]; single oral 0.21 mg/kg BW): 1.6 × 10^–4
- calculated EARtest value (erythrocyte AChE [3]; single oral 0.30 mg/kg BW): 2.3 × 10^–4
- calculated DCR value (erythrocyte AChE [3]; single oral 200 mg/kg BW): 2.1
- calculated EARtest value (erythrocyte AChE [3]; single oral 200 mg/kg BW): 0.084
- calculated DCR value (erythrocyte AChE [3]; single oral 214 mg/kg BW): 2.2
- calculated EARtest value (erythrocyte AChE [3]; single oral 214 mg/kg BW): 0.085
- calculated DCR value (erythrocyte AChE [3]; single oral 293 mg/kg BW): 2.3
- calculated EARtest value (erythrocyte AChE [3]; single oral 293 mg/kg BW): 0.089
- calculated DCR value (erythrocyte AChE [3]; single oral 323 mg/kg BW): 2.3
- calculated EARtest value (erythrocyte AChE [3]; single oral 323 mg/kg BW): 0.090
- calculated DCR value (erythrocyte AChE [3]; single oral 357 mg/kg BW): 2.3
- calculated EARtest value (erythrocyte AChE [3]; single oral 357 mg/kg BW): 0.091
- calculated DCR value (erythrocyte AChE [3]; single oral 429 mg/kg BW): 2.3
- calculated EARtest value (erythrocyte AChE [3]; single oral 429 mg/kg BW): 0.093
- calculated DCR value (erythrocyte AChE [3]; single oral 643 mg/kg BW): 2.4
- calculated EARtest value (erythrocyte AChE [3]; single oral 643 mg/kg BW): 0.095
